Like-named read-outs stand apart in the source and are kept apart here.
Experiments:
[1] = test system: matured female SD rats; format: in vivo, rat; conditions: vaginal, aqueous solution with 10% citric acid at pH 2.0
Description: A synthetic peptide (monoacetate.pentahydrate; (Pyr)Glu-His-Trp-Ser-Tyr-D-Leu-Leu-Arg-Pro-NH-C2 H5) was dissolved in aliquots of Clark-Lubs buffer [J. Bact. 2, (1), 109, 191(1971) [or Sorensen's buffer [Ergeb.Physiol. 12, 3931 (1912)] at pH 2-7 and each solution was supported on a piece (substantially-predetermined volume) of cotton and administered into the vaginas of rats to investigate the pH dependence of the ovulation-stimulating activity of the peptide.
Using matured female SD rats (120-150 days, body weights from 250 to 350 g), each preparation was vaginally administered during the diestrus and the animal was autopsied next morning to check for the occurrence of ovulation based on the presence or absence of ova in the ampulla.
The same peptide as that used in Example 12 was dissolved in 0.238 mol/liter aqueous solutions of various water-soluble aliphatic carboxylic acids which had been previously adjusted to pH 3.5 with small amounts of 10 N--NaOH. […]
The same peptide as used in Example 12 was employed as the active component. Citric acid was added to aliquots of phthalate buffer (pH 3.5) at the levels of addition of 1, 2, 5, 7 and 10% (W/V) and the pH of each solution was readjusted to pH 3.5 with a small amount of concentrated NaOH. […]

[2] = test system: rat; format: in vivo
From the text: In terms of ovulation-stimulating action, a 30 times increase of stimulating effect was obtained over the control (without carboxylic acid) in the case of natural type LH-RH (Table 1). […] It is clear that a given pharmacological effect can be obtained at a dose equivalent to 5.2 times the intravenous dose or 3.1 times the subcutaneous dose. […] In view of these facts, it is obvious that the vaginal administration according to this invention is a very advantageous method of medication.
Thus, to achieve a given ovulation-stimulatingactivity, the vaginal preparation according to this invention requires only 2.6 times as much of peptide as by the intravenous route and 1.7 times as much of peptide as by the subcutaneous route. The unusual effectiveness of the vaginal preparation of this invention will also be apparent in view of the fact that oral administration requires 1900 times as much of peptide as by the intravenous route, rectal administration requires 82 times the dosage by the intravenous route, and vaginal administration with the oleaginous basis (Witepsol® S55) requires 26 times as much of peptide as by the intravenous route.

`CCNC(=O)[C@@H]1CCCN1C(=O)[C@H](CCCNC(=N)N)NC(=O)[C@H](CC(C)C)NC(=O)[C@@H](CC(C)C)NC(=O)[C@H](Cc1ccc(O)cc1)NC(=O)[C@H](CO)NC(=O)[C@H](Cc1c[nH]c2ccccc12)NC(=O)[C@H](Cc1c[nH]cn1)NC(=O)[C@@H]1CCC(=O)N1` [peptide of Example 12, (Pyr)Glu-His-Trp-Ser-Tyr-D-Leu-Leu-Arg-Pro-NH-C2 H5] was tested, and the “ED50, ovulation-stimulating activity” value [1] was 9.9 ng/100 g (body weight of rat), the “ED50, ovulation-stimulating activity” value ([2]; intravenous route) was 3.8 ng/100 g (body weight of rat) and the “ED50, ovulation-stimulating activity” value ([2]; subcutaneous route) was 5.8 ng/100 g (body weight of rat).

Reference: patent publication US4211769A, “Preparations for vaginal administration” (Takeda Chemical Industries, Ltd., priority 1977, dated 1980)
